The test system of this assay is breast cancer cell lines. Nature of the assay: Cell growth inhibition assay (Cell Titer Glo, 72 h drug exposure, GI50) across a breast cancer cell line panel, with subtype, copy number and growth rate association analysis. Conditions: for Subtype specificity: Table 1, most sensitive cell line subtype, q<0.10 deemed significant; for Molecular Subtype in which the compound shows Preferential Activity: Table 7 summary; for Subtype-preferential activity in breast cancer cell lines (in words): running text and figure legends, response as −log10(GI50); for Association of 17q12 (ERBB2) amplification with compound response / Association of 20q13 (STK15/AURKA) amplification with compound response: high amplification vs. low or no amplification, t-test; for Response of the cell line panel as a whole: compounds excluded from further analysis; for Association of response with growth rate (doubling time): 2-way ANCOVA of cell line class and growth rate. In kind it is cell-based, human. Background: ATP-based viability assays read luminescence as a measure of living cells.

“Also recorded” adds a separate entry of the source.

Take `CS(=O)(=O)CCNCc1ccc(-c2ccc3ncnc(Nc4ccc(OCc5cccc(F)c5)c(Cl)c4)c3c2)o1` [Lapatinib]: the Subtype specificity result is given as “Luminal/ERBB2AMP”.

`O=C(CCCCCCC(=O)Nc1ccccc1)NO` [Vorinostat]: the Subtype specificity entry is listed as “Luminal”, the “Molecular Subtype in which the compound shows Preferential Activity” value (from here on “Molecular Subtype”) is “Luminal (ER+/PR+)” and the “Subtype-preferential activity in breast cancer cell lines (in words)” value (“Subtype-preferential activity” below) is recorded as “preferentially active in luminal class cell lines”.

With `CN(C)C/C=C/C(=O)Nc1cc2c(Nc3ccc(F)c(Cl)c3)ncnc2cc1O[C@H]1CCOC1` [BIBW 2992], the Subtype specificity result was “ERBB2AMP” and the “Association of 17q12 (ERBB2) amplification with compound response” value (shortened to “Association of 17q12”) is given as “associated with sensitivity”.

For `Cc1[nH]c2ccccc2c1CCNCc1ccc(/C=C/C(=O)NO)cc1` [LBH589], the Subtype specificity result is “Luminal”.

In the case of `C=CCNC1=C2C[C@@H](C)C[C@H](OC)[C@H](O)[C@@H](C)/C=C(\C)[C@H](OC(N)=O)[C@@H](OC)/C=C\C=C(/C)C(=O)NC(=CC1=O)C2=O` [17-AAG], the Subtype specificity result is reported as “ERBB2AMP” and the “Association of 17q12” value was “associated with sensitivity”.

In the case of `CC(/C=C/C(=O)NO)=C\[C@@H](C)C(=O)c1ccc(N(C)C)cc1` [Trichostatin A], the Subtype specificity entry was “Luminal”, the “Molecular Subtype” value was “Luminal (ER+/PR+)” and the “Subtype-preferential activity” value is given as “preferentially active in luminal class cell lines”.

On to `N.N.[Cl][Pt][Cl]` [Cisplatin], for which the Subtype specificity result is given as “Basal/Claudin-low” and the “Subtype-preferential activity” value is “basal cell line sensitivity; also recorded: preferential activity in basal or claudin-low cell lines”.

As to `O=c1cc(-c2ccccc2)oc2cc(O)c(O)c(O)c12` [baicalein], the “Response of the cell line panel as a whole” value is on record as “almost none of the cell lines in the panel responded strongly”.

Regarding `O=c1[nH]c2ccccc2n1C1CCN(Cc2ccc(-c3nc4cc5[nH]cnc5cc4nc3-c3ccccc3)cc2)CC1` [Sigma AKT1-2 inhibitor], the Subtype specificity result is on record as “Luminal”; the “Subtype-preferential activity” value is “Luminal and ERBB2AMP cell lines preferentially respond”.

Take `CCNCCCNC/C=C\CNCCCNCC` [CGC-11047]: the Subtype specificity result is “Basal”.

Turning to `COc1ncc(-c2ccc3nccc(-c4ccnnc4)c3c2)cc1NS(=O)(=O)c1ccc(F)cc1F` [GSK2126458], the Subtype specificity entry is on record as “Luminal/ERBB2AMP”.

`COc1cc([C@@H]2c3cc4c(cc3[C@@H](O[C@@H]3O[C@@H]5CO[C@@H](C)O[C@H]5[C@H](O)[C@H]3O)[C@H]3COC(=O)[C@H]23)OCO4)cc(OC)c1O` [Etoposide]: the Subtype specificity entry is given as “Claudin-low” and the “Subtype-preferential activity” value is “preferential activity in basal or claudin-low cell lines”.

For `CCN(CC)CCCCNc1ncc2cc(-c3cc(OC)cc(OC)c3)c(NC(=O)NC(C)(C)C)nc2n1` [PD173074], the Subtype specificity result is “Claudin-low”.

On to `COc1cc2ncnc(Nc3cccc(Cl)c3)c2cc1OC` [AG1478], for which the Subtype specificity result is given as “ERBB2AMP”.

As to `O=c1[nH]cc(F)c(=O)[nH]1` [5-FU, Fluorouracil], the “Association of response with growth rate (doubling time)” value (from here on “Association of response”) was “strong effects of both subtype and growth rate on response”; the “Molecular Subtype” value was “KI67+ tumors”. Where the note is “listed as 5-florouracil”, the “Association of response” value was “strong significance in the ANCOVA model for both class and doubling time; also recorded: decreases as doubling time increases”; the “Subtype-preferential activity” value is “not significant in the subtype test alone”. For the same compound, the “Association of response” value (listed as Fluorouracil) is listed as “active against cell lines with rapid growth rates; also recorded: active against cell lines that grow more quickly”. For the setting “ANCOVA model, FIG. 4B”, the “Shift of mean sensitivity between luminal and basal subtypes” value is “shifts by approximately one log”. Where the note is “listed as Fluoruracil”, the “Subtype-preferential activity” value is “more effective against basal cell lines (both triple negative and claudin-low) than against luminal cell lines”.

For `COc1cc2ncnc(Nc3ccc(F)c(Cl)c3)c2cc1OCCCN1CCOCC1` [Gefitinib], the Subtype specificity result is “ERBB2AMP” and the “Association of 17q12” value is recorded as “associated with sensitivity”.

For `O=C(Nc1cc(Cl)cc2c1[nH]c1cnccc12)c1cccnc1` [PS1145], the “Response of the cell line panel as a whole” value was “almost none of the cell lines in the panel responded strongly”.

In the case of `O=C1c2ccccc2-[n+]2ccc3c([nH]c4ccccc43)c21` [Fascaplysin], the Subtype specificity result was “Luminal”.

On to `CCn1cc(-c2ccnc3[nH]c(-c4cccc(CN(C)C)c4)cc23)c(-c2ccc(NC(=O)N(C)C)cc2)n1` [GSK1070916], for which the Subtype specificity entry is given as “Claudin-low”, the “Molecular Subtype” value is listed as “Claudin-low; also recorded: Tumors with low or no 20q13 amplification”, the “Association of 20q13 (STK15/AURKA) amplification with compound response” value was “is associated with; also recorded: associated with resistance” and the “Subtype-preferential activity” value is listed as “more active against basal and/or claudin-low cell lines”. For the same compound, for the setting “listed as GSK.AUR1”, the “Association of 20q13 (STK15/AURKA) amplification with compound response” value is listed as “less effective in tumors that have genomic DNA copy number amplifications at 20q13” and the “Subtype-preferential activity” value is recorded as “preferentially active against Claudin-low cell lines”.

For `CC(=O)O[C@@]12CO[C@@H]1C[C@H](O)[C@@]1(C)C(=O)[C@H](O)C3=C(C)[C@@H](OC(=O)[C@H](O)[C@@H](NC(=O)OC(C)(C)C)c4ccccc4)C[C@@](O)([C@@H](OC(=O)c4ccccc4)[C@H]21)C3(C)C` [Docetaxel], the Subtype specificity entry is reported as “Basal/Claudin-low” and the “Subtype-preferential activity” value is “preferential activity in basal or claudin-low cell lines”.

As for `CO[C@H]1C[C@@H]2CC[C@@H](C)[C@@](O)(O2)C(=O)C(=O)N2CCCC[C@H]2C(=O)O[C@H]([C@H](C)C[C@@H]2CC[C@@H](OC(=O)C(C)(CO)CO)[C@H](OC)C2)CC(=O)[C@H](C)/C=C(\C)[C@@H](O)[C@@H](OC)C(=O)[C@H](C)C[C@H](C)/C=C/C=C/C=C/1C` [Temsirolimus], the Subtype specificity entry is recorded as “Luminal”.

Regarding `C#Cc1cccc(Nc2ncnc3cc(OCCOC)c(OCCOC)cc23)c1` [Erlotinib], the Subtype specificity result is given as “Basal”, the “Molecular Subtype” value was “Basal (ER−/PR−/HER2−Claudin+)” and the “Subtype-preferential activity” value is “preferentially active in basal class cell lines”.

For the compound `Cc1cc(Nc2cc(N3CCN(C)CC3)nc(Sc3ccc(NC(=O)C4CC4)cc3)n2)n[nH]1` [VX-680], the Subtype specificity result was “not ERBB2AMP”.

As to `NS(=O)(=O)c1ccc(Nc2nc(OCC3CCCCC3)c3[nH]cnc3n2)cc1` [NU6102], the “Association of 17q12” value is on record as “associated with resistance”.
